Measured values: patent US20090047221A1 (NIPRI LIMITED, priority 2004, published 2009)

System: cancer cell line MDA-MB-468
Test: Combination index with known cancer drugs against proliferation (Calcusyn software)
Type: cell-based
Source text: A combination index of less than 0.1 indicates very strong synergy; a combination index of 0.1 to 0.3 indicates strong synergism; a combination index of 0.3 to 0.7 indicates synergism; a combination index of 0.7 to 0.85 indicates moderate synergism; a combination index of 0.85 to 0.9 indicates slight synergism and a combination index of 0.9 to 1.1 indicates only very slight synergism, said combination being close to merely additive.
The combination index may be calculated using calcusyn software.
Evidence of synergy was determined by calculation of the combination index using Calcusyn software.
The MTT assay was used initially to determine the anti-proliferative activity of the test compounds. In the MTT assay a yellow thiazolyl blue tetrazolium bromide salt (MTT) is reduced, in metabolically active cells, to form insoluble purple formazan crystals which are solubilised by the addition of dimethyl sulphoxide (DMSO). Absorbance readings can then be determined spectrophotometrically and a relationship established between control untreated cells and drug treated cells enabling the quantification of anti-proliferative changes as a result of drug treatment (Mosmann, 1983).
Wells containing medium only were used as blanks. Following the attachment period, cells were treated with appropriate drug concentrations (20 μl added per well). 40 mg/ml stock drug solutions, in DMSO, were stored at −20° C. and on the day of drug treatment working solutions of 4 mg/ml were prepared in medium which was further diluted to achieve final drug dilution volumes of 20 μl. Initial screening was determined over a concentration range of 1-200 μg/ml. For potent compounds the assay was repeated over a narrower concentration range to determine accurate IC50 values. Cells were exposed to drug for 96 h continual exposure (37° C., 5% CO2). Following the 96 h incubation, 50 μl MTT solution (1 g MTT/500 ml PBS) was added per well and the plates were further incubated for 4 h (37° C., 5% CO2). After incubation the MTT and medium was removed from the wells and 100 μl DMSO added per well. Plates were agitated on an orbital mixer platform (Stuart Scientific) for 10 minutes. Absorbance was measured at 570 nm on a Biotrak II (Amersham Bioscience) plate reader. IC50 values were calculated comparing control and drug treated cells.

Measured: Combination Index

CCCCCCNC(=O)c1ccc2c(c1O)C(=O)OC(C)C2 (racemic) [ALM-49, Hexyl Amide]
0.659: Etoposide 1 × 10^−5 mol/L, ALM compound 0.5 μg/ml
0.042: Irinotecan 1 × 10^−4 mol/L, ALM compound 5.0 μg/ml
0.234: Etoposide 1 × 10^−4 mol/L, ALM compound 0.5 μg/ml
1.065: Etoposide 1 × 10^−5 mol/L, ALM compound 1.0 μg/ml
0.051: Cisplatin 1 × 10^−2 mol/L, ALM compound 5.0 μg/ml
0.175: Etoposide 1 × 10^−4 mol/L, ALM compound 5.0 μg/ml
0.557: Irinotecan 1 × 10^−3 mol/L, ALM compound 5.0 μg/ml
0.009: Cisplatin 1 × 10^−2 mol/L, ALM compound 1.0 μg/ml
0.019: Irinotecan 1 × 10^−4 mol/L, ALM compound 0.5 μg/ml
0.487: Cisplatin 1 × 10^−9 mol/L, ALM compound 0.1 μg/ml
0.715: Irinotecan 1 × 10^−3 mol/L, ALM compound 1.0 μg/ml
0.836: Etoposide 1 × 10^−9 mol/L, ALM compound 0.1 μg/ml
1.167: Etoposide 1 × 10^−7 mol/L, ALM compound 0.1 μg/ml
0.410: Doxorubicin 1 × 10^−5 mol/L, ALM compound 0.1 μg/ml
0.436: Doxorubicin 1 × 10^−5 mol/L, ALM compound 0.5 μg/ml
0042: Irinotecan 1 × 10^−4 mol/L, ALM compound 1.0 μg/ml
0.625: Cisplatin 1 × 10^−7 mol/L, ALM compound 0.1 μg/ml
0.720: Doxorubicin 1 × 10^−5 mol/L, ALM compound 5.0 μg/ml
0.119: Cisplatin 1 × 10^−8 mol/L, ALM compound 0.1 μg/ml
0.968: Doxorubicin 1 × 10^−4 mol/L, ALM compound 5.0 μg/ml
0.003: Cisplatin 1 × 10^−2 mol/L, ALM compound 0.1 μg/ml
No: Cisplatin 1 × 10^−3 mol/L, ALM compound 0.1 μg/ml | Cisplatin 1 × 10^−3 mol/L, ALM compound 0.5 μg/ml | Cisplatin 1 × 10^−3 mol/L, ALM compound 1.0 μg/ml | Cisplatin 1 × 10^−3 mol/L, ALM compound 5.0 μg/ml | Cisplatin 1 × 10^−4 mol/L, ALM compound 0.1 μg/ml | Cisplatin 1 × 10^−4 mol/L, ALM compound 0.5 μg/ml | Cisplatin 1 × 10^−4 mol/L, ALM compound 1.0 μg/ml | Cisplatin 1 × 10^−4 mol/L, ALM compound 5.0 μg/ml | Cisplatin 1 × 10^−5 mol/L, ALM compound 0.1 μg/ml | Cisplatin 1 × 10^−5 mol/L, ALM compound 0.5 μg/ml | Cisplatin 1 × 10^−5 mol/L, ALM compound 1.0 μg/ml | Cisplatin 1 × 10^−5 mol/L, ALM compound 5.0 μg/ml | Cisplatin 1 × 10^−6 mol/L, ALM compound 0.1 μg/ml | Cisplatin 1 × 10^−6 mol/L, ALM compound 0.5 μg/ml | Cisplatin 1 × 10^−6 mol/L, ALM compound 1.0 μg/ml | Cisplatin 1 × 10^−6 mol/L, ALM compound 5.0 μg/ml | Cisplatin 1 × 10^−7 mol/L, ALM compound 0.5 μg/ml | Cisplatin 1 × 10^−7 mol/L, ALM compound 1.0 μg/ml | Cisplatin 1 × 10^−7 mol/L, ALM compound 5.0 μg/ml | Cisplatin 1 × 10^−8 mol/L, ALM compound 0.5 μg/ml | Cisplatin 1 × 10^−8 mol/L, ALM compound 1.0 μg/ml | Cisplatin 1 × 10^−8 mol/L, ALM compound 5.0 μg/ml | Cisplatin 1 × 10^−9 mol/L, ALM compound 0.5 μg/ml | Cisplatin 1 × 10^−9 mol/L, ALM compound 1.0 μg/ml | Cisplatin 1 × 10^−9 mol/L, ALM compound 5.0 μg/ml | Doxorubicin 1 × 10^−4 mol/L, ALM compound 0.1 μg/ml | Doxorubicin 1 × 10^−4 mol/L, ALM compound 0.5 μg/ml | Doxorubicin 1 × 10^−4 mol/L, ALM compound 1.0 μg/ml | Etoposide 1 × 10^−6 mol/L, ALM compound 0.1 μg/ml | Etoposide 1 × 10^−6 mol/L, ALM compound 1.0 μg/ml | Etoposide 1 × 10^−6 mol/L, ALM compound 5.0 μg/ml | Etoposide 1 × 10^−7 mol/L, ALM compound 1.0 μg/ml | Etoposide 1 × 10^−7 mol/L, ALM compound 5.0 μg/ml | Etoposide 1 × 10^−8 mol/L, ALM compound 0.1 μg/ml | Etoposide 1 × 10^−8 mol/L, ALM compound 0.5 μg/ml | Etoposide 1 × 10^−8 mol/L, ALM compound 1.0 μg/ml | Etoposide 1 × 10^−8 mol/L, ALM compound 5.0 μg/ml | Etoposide 1 × 10^−9 mol/L, ALM compound 0.5 μg/ml | Etoposide 1 × 10^−9 mol/L, ALM compound 1.0 μg/ml | Etoposide 1 × 10^−9 mol/L, ALM compound 5.0 μg/ml | Etoposide 1 × 10^−10 mol/L, ALM compound 0.5 μg/ml | Etoposide 1 × 10^−10 mol/L, ALM compound 1.0 μg/ml | Etoposide 1 × 10^−10 mol/L, ALM compound 5.0 μg/ml | Irinotecan 1 × 10^−3 mol/L, ALM compound 0.1 μg/ml | Irinotecan 1 × 10^−5 mol/L, ALM compound 0.1 μg/ml | Irinotecan 1 × 10^−5 mol/L, ALM compound 0.5 μg/ml | Irinotecan 1 × 10^−5 mol/L, ALM compound 1.0 μg/ml | Irinotecan 1 × 10^−5 mol/L, ALM compound 5.0 μg/ml | Irinotecan 1 × 10^−6 mol/L, ALM compound 0.1 μg/ml | Irinotecan 1 × 10^−6 mol/L, ALM compound 0.5 μg/ml | Irinotecan 1 × 10^−6 mol/L, ALM compound 1.0 μg/ml | Irinotecan 1 × 10^−6 mol/L, ALM compound 5.0 μg/ml | Irinotecan 1 × 10^−7 mol/L, ALM compound 0.1 μg/ml | Irinotecan 1 × 10^−7 mol/L, ALM compound 0.5 μg/ml | Irinotecan 1 × 10^−7 mol/L, ALM compound 1.0 μg/ml | Irinotecan 1 × 10^−7 mol/L, ALM compound 5.0 μg/ml | Irinotecan 1 × 10^−8 mol/L, ALM compound 0.1 μg/ml | Irinotecan 1 × 10^−8 mol/L, ALM compound 0.5 μg/ml | Irinotecan 1 × 10^−8 mol/L, ALM compound 1.0 μg/ml | Irinotecan 1 × 10^−8 mol/L, ALM compound 5.0 μg/ml | Irinotecan 1 × 10^−9 mol/L, ALM compound 0.1 μg/ml | Irinotecan 1 × 10^−9 mol/L, ALM compound 0.5 μg/ml | Irinotecan 1 × 10^−9 mol/L, ALM compound 1.0 μg/ml | Irinotecan 1 × 10^−9 mol/L, ALM compound 5.0 μg/ml | Irinotecan 1 × 10^−10 mol/L, ALM compound 0.1 μg/ml | Irinotecan 1 × 10^−10 mol/L, ALM compound 0.5 μg/ml | Irinotecan 1 × 10^−10 mol/L, ALM compound 1.0 μg/ml | Irinotecan 1 × 10^−10 mol/L, ALM compound 5.0 μg/ml
0.438: Doxorubicin 1 × 10^−5 mol/L, ALM compound 1.0 μg/ml
0.210: Etoposide 1 × 10^−4 mol/L, ALM compound 1.0 μg/ml
0.606: Irinotecan 1 × 10^−3 mol/L, ALM compound 0.5 μg/ml
0.344: Etoposide 1 × 10^−10 mol/L, ALM compound 0.1 μg/ml
0.385: Etoposide 1 × 10^−4 mol/L, ALM compound 0.1 μg/ml
0.029: Irinotecan 1 × 10^−4 mol/L, ALM compound 0.1 μg/ml
1.184: Etoposide 1 × 10^−5 mol/L, ALM compound 0.1 μg/ml
0.806: Etoposide 1 × 10^−6 mol/L, ALM compound 0.5 μg/ml
0.941: Etoposide 1 × 10^−5 mol/L, ALM compound 5.0 μg/ml
0.002: Cisplatin 1 × 10^−2 mol/L, ALM compound 0.5 μg/ml
0.78: Etoposide 1 × 10^−7 mol/L, ALM compound 0.5 μg/ml
